In PMC11904701, “Isolation and Characterization of Secondary Metabolites from Endemic and Edible Polygonum sivasicum with In Vitro Antioxidant and Cytotoxic Activities” (ACS Omega, 2025):
Converted amounts (≈) assume the structure as drawn.

How the values were obtained:
HepG2 cells = tested on: HepG2 cells; design: method as in doi:10.14233/ajchem.2013.15043; conditions: cited from earlier work
V79–4 cells = tested on: V79–4 cells; design: method as in PMID 18550394; conditions: cited from earlier work
U118 cell line = tested on: U118 cell line; design: method as in PMID 28856938; conditions: data not included in the cited paper; cited from earlier work
[1] = tested on: CCD-1079Sk (human normal skin fibroblast epithelial cells); assay: MTT cell viability assay, CCD-1079Sk; format: cell-based; conditions: 24 h, mean ± SD (n = 3)
Experimental: (§1) The A549 (human lung carcinoma epithelial cells, ATCC, CCL-185), MCF-7 (human breast cancer cells, ATCC, HTB-22), and CCD-1079Sk (human normal skin fibroblast epithelial cells, ATCC, CRL-2097) cell lines were initially seeded into culture flasks and grown in DMEM supplemented with 10% FBS (Sigma-Aldrich, St Louis, MO), 1% penicillin/streptomycin (Thermo Fisher Scientific, Carlsbad, CA). The cell lines were maintained in a humidified atmosphere of 5% CO2 at a temperature of 37 °C. The culture medium was changed every two days until the cells reached 80% confluence.
(§2) 3-(4,5-dimethyl-2-thiazolyl)-2,5-diphenyl-2H-tetrazolium bromide (MTT) was used to assess the cytotoxicity of hyperoside, annphenone, daucosterol, and P. sivasicum methanol extract. Cells were grown in 96-well plates at a density of 5 × 10^3 cells per well. In total, 70 to 80% of confluent cells (after 24 h) were treated with different concentrations of compounds (prepared in a medium containing 1% DMSO) in the growth medium for 24 h. At the end of the incubation periods, MTT solution was added to the wells to give a final concentration of 0.5 mg/mL. The cells were then incubated at 37 °C for a further 3.5 h. To solubilize the formazan crystals, 100 μL of DMSO was added to each well. The optical density was read at 570 nm by using an ELISA microplate reader and directly correlated with the number of viable cells. For each concentration, the data for which the measurement was repeated at least three times were compared. The relative % cell viability and the IC50 value were determined by plotting the graph as a function of concentration. Untreated cells were considered as control, and medium without cells was considered as background control. To determine the cytotoxic effect of compounds on cell viability, cells that were not treated with compounds were considered 100% viable, and cell viability was calculated according to the following formula: % Cell Viability = Sample/Control × 100.
(§3) All data on bioactivity tests were averages of triplicate analyses. Activity assays were carried out at six concentrations, and the results are given as the IC50 values. The data were analyzed using One-way ANOVA followed by Tukey’s post hoc test. p < 0.05, p < 0.001 and p < 0.0001 were considered statistically significant. Data were recorded as mean ± SEM (standard error of the mean). Significant differences between means were determined by the one-way ANOVA, and p values < 0.05 were regarded as significant. IBM SPSS statistical software (Version: 28.0.0.0 (190)) and GraphPad Prism 10.2 were used for statistical analysis.

MCF-7 cell line = tested on: MCF-7 cell line; design: method as in PMID 28856938; conditions: data not included in the cited paper; cited from earlier work
U87 cell line = tested on: U87 cell line; design: method as in PMID 28856938; conditions: data not included in the cited paper; cited from earlier work
[2] = tested on: MCF-7 (human breast cancer cells); assay: MTT cell viability assay, MCF-7; format: cell-based; conditions: 24 h; for IC50: Homo sapiens, MCF7, MTT, mean ± SD (n = 3); for selectivity index MCF-7: versus CCD-1079Sk
Experimental: as §1, §2, §3

A549 cell line = tested on: A549 cell line; design: method as in PMID 28856938; conditions: data not included in the cited paper; cited from earlier work
[3] = tested on: A549 (human lung carcinoma epithelial cells); assay: MTT cell viability assay, A549; conditions: for IC50: Homo sapiens, A549, 24 h, read-out: IC50, 24 h, A549; for selectivity index A549: versus CCD-1079Sk, 24 h
Hep-3B cell line = tested on: Hep-3B cell line; design: method as in PMID 28856938; conditions: data not included in the cited paper; cited from earlier work
[4] = design: method as in PMID 28856938; conditions: annphenone isolated from a Euphorbia species; cited from earlier work
[5] = CUPRAC (Cupric Reducing Antioxidant Capacity) method; format: biochemical; conditions: A0.5 values, mean ± SEM of three parallel measurements
Experimental: as §3, with “Significant differences between means were determined by the one-way ANOVA, and p values < 0.05 were regarded as significant.” left out

[6] = β-carotene linoleic acid bleaching assay; format: biochemical; conditions: mean ± SEM of three parallel measurements
Experimental: as §3, with “Significant differences between means were determined by the one-way ANOVA, and p values < 0.05 were regarded as significant.” left out

[7] = DPPH free radical scavenging assay; format: biochemical; conditions: mean ± SEM of three parallel measurements
Experimental: as §3, with “Significant differences between means were determined by the one-way ANOVA, and p values < 0.05 were regarded as significant.” left out

[8] = ABTS cation radical assay; format: biochemical; conditions: mean ± SEM of three parallel measurements
Experimental: as §3, with “Significant differences between means were determined by the one-way ANOVA, and p values < 0.05 were regarded as significant.” left out

breast cancer tumor = tested on: breast cancer tumor; design: method as in PMID 30160115; conditions: mice, dose-dependent; cited from earlier work
MDA-MB-231 = tested on: MDA-MB-231; design: method as in PMID 30160115; conditions: after 24 h; cited from earlier work
MCF-7 = tested on: MCF-7; design: method as in PMID 30160115; conditions: after 24 h; cited from earlier work

IC50 [2]	IC50 [3]	CUPRAC IC50 (A0.5: concentration of 0.500 Absorbance value) [5]	ABTS IC50 [8]	Compound	IC50 [1]	selectivity index MCF-7 [2]	selectivity index A549 [3]	also measured
–	–	–	–	O=c1[nH]cc(F)c(=O)[nH]1 [5-fluorouracil, reference compound]	–	–	–	antiproliferative IC50 on HepG2 cells (HepG2 cells): 0.33 µg/mL
360 ± 20 µg/mL (≈ 1050 µM)	250 ± 10 µg/mL (≈ 726 µM)	–	–	COc1cc(O[C@@H]2O[C@H](CO)[C@@H](O)[C@H](O)[C@H]2O)cc(O)c1C(C)=O [Annphenone, 2,4-dihydroxy-6-methoxy-acetophenone 4-O-β-D-glucopyranoside]	300 ± 50 µg/mL (≈ 871 µM)	0.83	1.20	cytoprotective effect against H2O2-induced apoptosis (V79–4 cells): confirmed; cytotoxicity against U118 (U118 cell line): no cytotoxicity; antiproliferative IC50 on HepG2 cells (HepG2 cells): 2.0 µg/mL; cytotoxicity against MCF-7 (MCF-7 cell line): no cytotoxicity; cytotoxicity against U87 (U87 cell line): no cytotoxicity; cytotoxicity against A549 (A549 cell line): no cytotoxicity; cytotoxicity against Hep-3B (Hep-3B cell line): no cytotoxicity; DPPH scavenging IC50 [4]: 23.23 ± 1.8 µg/mL
–	–	26.85 ± 1.50 µg/mL	21.67 ± 0.87 µg/mL	Cc1cc(C(C)(C)C)c(O)c(C(C)(C)C)c1 [BHT, Butylated hydroxy toluene]	–	–	–	–
580 ± 20 µg/mL (≈ 1010 µM)	180 ± 20 µg/mL (≈ 312 µM)	–	–	CC[C@H](CC[C@@H](C)[C@H]1CC[C@H]2[C@@H]3CC=C4C[C@@H](O[C@@H]5O[C@H](CO)[C@@H](O)[C@H](O)[C@H]5O)CC[C@]4(C)[C@H]3CC[C@]12C)C(C)C [Daucosterol, β-sitosterol-3-O-β-glucopyranoside]	260 ± 30 µg/mL (≈ 451 µM)	0.44	1.44	tumor volume (breast cancer tumor): decrease; tumor weight (breast cancer tumor): decrease; IC50 (MDA-MB-231): 49.8 mM; IC50 (MCF-7): 30.8 mM
40 ± 10 µg/mL (≈ 73.6 µM)	10 ± 10 µg/mL (≈ 18.4 µM)	–	–	COc1cccc2c1C(=O)c1c(O)c3c(c(O)c1C2=O)C[C@@](O)(C(=O)CO)C[C@@H]3O[C@H]1C[C@H](N)[C@H](O)[C@H](C)O1 [Doxorubicin, reference compound]	280 ± 10 µg/mL (≈ 515 µM)	7.0	28.0	–
370 ± 20 µg/mL (≈ 797 µM)	600 ± 70 µg/mL (≈ 1290 µM)	–	–	O=c1c(O[C@@H]2O[C@H](CO)[C@H](O)[C@H](O)[C@H]2O)c(-c2ccc(O)c(O)c2)oc2cc(O)cc(O)c12 [Hyperoside, Quercetin-3-O-β-galactopyranoside]	250 ± 40 µg/mL (≈ 538 µM)	0.67	0.41	–
–	–	134.53 ± 0.19 µg/mL	27.70 ± 0.28 µg/mL	Cc1c(C)c2c(c(C)c1O)CC[C@@](C)(CCC[C@H](C)CCC[C@H](C)CCCC(C)C)O2 [α-Toc, Tocopherol]	–	–	–	DPPH IC50 [7]: 36.35 ± 0.24 µg/mL

Compound	IC50 [2]	IC50 [3]	CUPRAC IC50 (A0.5: concentration of 0.500 Absorbance value) [5]	ABTS IC50 [8]	IC50 [1]	selectivity index MCF-7 [2]	selectivity index A549 [3]	also measured
COc1ccc(O)c(C(C)(C)C)c1 [BHA, Butylated hydroxy anisol]	–	–	24.49 ± 0.19 µg/mL	7.23 ± 0.01 µg/mL	–	–	–	β-carotene IC50 [6]: 1.34 ± 0.04 µg/mL; DPPH IC50 [7]: 28.59 ± 0.06 µg/mL
